Patent publication EP2551257A1, “Co-crystals of agomelatine with co-crystal-formers” (Laboratorios del. Dr. Esteve, S.A., priority 2011, dated 2013)

Columns and labels:
[1] = Intrinsic Dissolution Rate (IDR) test, USP apparatus 2 (paddles); type: physicochemical; details: for Ratio: IDR of co-crystal relative to agomelatine; for IDR: 37°C, 100 rpm, 2 hours, calculated from slope of straight line
Excerpt: The aim of this study was to measure intrinsic dissolution rate (IDR) of some crystalline forms of the present invention in order to compare them with the IDR of the agomelatine. Intrinsic dissolution rate is defined as the dissolution rate of pure substance under the condition of constant surface area.
Figures 20 and 21 show the results of intrinsic dissolution rate performed with co-crystals obtained in examples 4 and 5. The IDR behaviour of agomelatine and the co-crystal of agomelatine - gentisic acid (1:1), agomelatine - citric acid (1:1) from the present invention was tested in USP apparatus 2 (paddles) at 37°C and 100 rpm with 2 hours in a solution of 0,1 N HCl (figure 20) and 2 hours in a buffer solution at pH 6.8 (figure 21). The intrinsic dissolution rate was calculated from the slope of the straight line obtained.

monoamine uptake = details: cited from earlier work
[2] = cited from earlier work
[3] = system: α, β adrenergic, histaminergic, cholinergic, dopaminergic and benzodiazepine receptors; details: cited from earlier work

Row | SMILES | Ratio ([1]; Media Buffer pH 6.8) | Ratio ([1]; Media HCl 0.1M) | IDR ([1]; Media Buffer pH 6.8) [mg/cm^2·s] | IDR ([1]; Media HCl 0.1M) [mg/cm^2·s] | effect on monoamine uptake (monoamine uptake) | solubility in various organic solvents ([2]; 96% ethanol, methanol, methylene chloride, freely soluble) [mg/mL] | solubility in purified water ([2]; purified water, practically insoluble) | affinity [3]
1 | COc1ccc2cccc(CCNC(C)=O)c2c1 [agomelatine-citric acid (1:1) co-crystal] | 1.76 | 1.92 | 0.0470 | 0.0670 |  |  |  | 
2 | COc1ccc2cccc(CCNC(C)=O)c2c1 [agomelatine, N-[2-(7-methoxynaphthalen-1-yl)ethyl]acetamide] |  |  | 0.0267 | 0.0349 | no effect | > 100 | < 0,1 mg/ml | no affinity
3 | COc1ccc2cccc(CCNC(C)=O)c2c1 [agomelatine - gentisic acid (1:1) co-crystal] | 1.70 | 1.28 | 0.0453 | 0.0447 |  |  |  | 
